From PMC7044277 (Nature Communications, 2020)
Several values for one entry are separate records, joined by “and”; a condition that tells them apart may be missing. Identical values can stand only once.

Experiments:
Assay type in all cases: cell-based
320 non-olfactory GPCRs [1] = target: T1, 320 non-olfactory GPCRs (Homo sapiens, UniProt O00421)
T1 construct: expressed in transfected cells; host or cells: HTLA cells

320 non-olfactory GPCRs [2] = target: T2, 320 non-olfactory GPCRs (Homo sapiens, UniProt O00254)
T2 construct: expressed in transfected cells; host or cells: HTLA cells

320 non-olfactory GPCRs [3] = target: T3, 320 non-olfactory GPCRs (Homo sapiens, UniProt P25089)
T3 construct: expressed in transfected cells; host or cells: HTLA cells

320 non-olfactory GPCRs [4] = target: T4, 320 non-olfactory GPCRs (Homo sapiens, UniProt P49286); settings: receptor MTNR1B; replicate values, Fig_4g
T4 construct: expressed in transfected cells; host or cells: HTLA cells
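Wherever Fold of Basal is given: compound tested at 1 µM final concentration.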
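Wherever GPCRome agonism screen response is given: fold over basal response of each receptor without drug.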

T2 sequence (O00254 22-374): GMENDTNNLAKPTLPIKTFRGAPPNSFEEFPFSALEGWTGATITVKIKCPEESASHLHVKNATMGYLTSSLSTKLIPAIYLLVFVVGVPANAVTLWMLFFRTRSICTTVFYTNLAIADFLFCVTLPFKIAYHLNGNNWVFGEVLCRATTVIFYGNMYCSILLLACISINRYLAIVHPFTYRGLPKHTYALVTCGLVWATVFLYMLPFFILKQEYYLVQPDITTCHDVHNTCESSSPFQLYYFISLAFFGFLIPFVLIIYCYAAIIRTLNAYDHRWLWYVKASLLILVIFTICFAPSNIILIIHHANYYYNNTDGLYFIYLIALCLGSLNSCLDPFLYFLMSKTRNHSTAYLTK
T1 sequence (O00421 whole entry): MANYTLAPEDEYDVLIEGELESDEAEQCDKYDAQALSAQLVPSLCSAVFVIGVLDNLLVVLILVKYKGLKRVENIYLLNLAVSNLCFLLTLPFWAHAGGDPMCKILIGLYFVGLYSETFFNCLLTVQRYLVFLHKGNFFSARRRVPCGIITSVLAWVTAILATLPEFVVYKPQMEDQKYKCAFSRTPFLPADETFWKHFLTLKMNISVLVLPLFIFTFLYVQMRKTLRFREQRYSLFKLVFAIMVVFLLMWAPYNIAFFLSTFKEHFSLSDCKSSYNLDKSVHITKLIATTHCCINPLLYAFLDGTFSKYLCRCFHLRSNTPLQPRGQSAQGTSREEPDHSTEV
T3 sequence (P25089 whole entry): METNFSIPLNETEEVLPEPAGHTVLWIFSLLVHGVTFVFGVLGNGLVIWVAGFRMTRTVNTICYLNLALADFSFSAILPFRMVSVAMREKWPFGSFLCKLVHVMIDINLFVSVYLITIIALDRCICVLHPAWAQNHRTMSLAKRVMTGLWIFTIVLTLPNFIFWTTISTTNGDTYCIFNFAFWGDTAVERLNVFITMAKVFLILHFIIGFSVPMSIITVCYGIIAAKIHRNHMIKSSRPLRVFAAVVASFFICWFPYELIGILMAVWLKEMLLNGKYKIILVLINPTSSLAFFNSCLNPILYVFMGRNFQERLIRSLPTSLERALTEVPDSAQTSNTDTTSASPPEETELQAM
T4 sequence (P49286 whole entry): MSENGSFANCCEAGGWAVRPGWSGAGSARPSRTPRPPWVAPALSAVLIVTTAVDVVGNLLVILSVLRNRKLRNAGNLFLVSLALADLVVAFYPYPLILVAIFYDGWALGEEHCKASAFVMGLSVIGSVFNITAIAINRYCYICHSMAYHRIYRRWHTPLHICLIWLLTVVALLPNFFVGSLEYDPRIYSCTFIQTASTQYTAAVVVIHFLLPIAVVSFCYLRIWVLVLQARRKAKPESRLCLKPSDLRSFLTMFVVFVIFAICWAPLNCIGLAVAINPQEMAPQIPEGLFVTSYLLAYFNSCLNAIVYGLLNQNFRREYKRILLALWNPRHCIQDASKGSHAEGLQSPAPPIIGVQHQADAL

In the case of `CCOc1cccc2cc(C(C)NCC3(O)CCCCC3)oc12` (stereo not shown) [O4LE6], the “Fold of Basal” value (320 non-olfactory GPCRs [1]) is reported as 1.0982 and 0.8519 and 0.828 and 1.211, the “Fold of Basal” value (320 non-olfactory GPCRs [2]) is reported as 0.8171 and 1.363 and 1.064 and 0.8535 and the “Fold of Basal” value (320 non-olfactory GPCRs [3]) is reported as 1.168 and 1.052 and 1.054 and 1.032. The “GPCRome agonism screen response” value (320 non-olfactory GPCRs [4]) was 1.769 and 0.5073 and 1.312 and 1.409.
